# Reference: PMC4890880 (ACS infectious diseases, 2016)
# Like-named read-outs stand apart in the source and are kept apart here.
# How the values were obtained:
# HepG2-A16-CD81EGFP cells [1] = conditions: for IC50: read-out: Tox_IC50, HepG2 cytotoxicity
# HepG2-A16-CD81EGFP cells [2] = assay: cells; conditions: Homo sapiens; for IC50: HepG2, read-out: Tox IC50; for inhibition at 50 µM: HepG2, read-out: Tox max inhibition (%) @ 50 uM
# [3] = system: Plasmodium berghei (Pb-Luc) exoerythrocytic-stage parasites; assay: microbe, parasite or virus in culture; conditions: for IC50: read-out: PbLuc IC50, dose response, 1/3 dilutions, max conc. 10 or 50 uM, unit inferred
# [4] = HepG2, read-out: HepG2 Tox% @ 50 uM rep1
# [5] = read-out: Inhibition% @ 50 uM rep1
# [6] = read-out: Inhibition% @ 50 uM rep2
# [7] = read-out: PbLuc max inhibition (%) @ 50 uM
# [8] = HepG2, read-out: HepG2 Tox% @ 50 uM rep2
Compound,IC50 (HepG2-A16-CD81EGFP cells [1]; sheet 2nd round) [µM],"Tox_max_inhibition (%) (HepG2-A16-CD81EGFP cells [1]; sheet 2nd round, maximal inhibition in dose response)","IC50 (HepG2-A16-CD81EGFP cells [1]; sheet ""2nd round"") [µM]","Tox_max_inhibition (%) (HepG2-A16-CD81EGFP cells [1]; sheet ""2nd round"")",cytotoxicity at 50 µM (HepG2-A16-CD81EGFP cells [2]; [4]) [%],IC50 (HepG2-A16-CD81EGFP cells [2]) [µM],inhibition at 50 µM (HepG2-A16-CD81EGFP cells [2]) [%],"inhibition at 50 µM [3, 5] [%]","inhibition at 50 µM [3, 6] [%]",IC50 [3] [µM],"inhibition at 50 µM [3, 7] [%]",cytotoxicity at 50 µM (HepG2-A16-CD81EGFP cells [2]; [8]) [%]
CCC(=O)N1CC2(CCN(C(=O)Nc3ccccc3F)CC2)c2c([nH]c3cc(OC)ccc23)[C@@H]1CO [BRD-K48749217-001-01-8],> 10,5.53,–,–,–,–,–,–,–,–,–,–
C[C@H](CO)N1C[C@H](C)[C@@H](CN(C)Cc2ccccc2)Oc2c(NC(=O)Cc3cn(C)c4ccccc34)cccc2C1=O [BRD-K71196168-001-01-1],–,–,> 10,44,–,–,–,–,–,–,–,–
COc1ccc(C2NCCc3c2[nH]c2ccccc32)cc1CN1CCN(c2ccc(F)cc2)CC1 (centres unmarked) [MMV019690],–,–,–,–,101,10.8,100,103,103,6.28,99,–
COc1cc(C(=O)Nc2nc3c(cc4c5c(cccc53)CC4)s2)cc(OC)c1OC [MMV396665],–,–,–,–,11,–,–,76,80,–,–,–
C=C(C)CCC(C)N1CCC(N2CCC(C(=O)NCCc3ccccc3)CC2)CC1 (centres unmarked) [MMV666110],–,–,–,–,91,–,–,101,99,–,–,97
Cc1sc(NC(=O)c2ccco2)c(C(c2cccnc2)N2CCC(Cc3ccccc3)CC2)c1C (centres unmarked) [MMV396663],–,–,–,–,82,–,–,103,103,–,–,–
COc1cc(C(=O)ON=C(N)Cc2cccc3ccccc23)cc(OC)c1OC [MMV666687],–,–,–,–,100,17.1,100,102,103,12.6,100,–
Cc1cc(Nc2cccc(F)c2)nc(NCc2ccccc2)n1 [MMV006319],–,–,–,–,99,–,–,104,106,–,–,102
CC(C)(C)c1ccc(O)c(CNC2CCCCC2)c1 [MMV665785],–,–,–,–,97,–,–,99,102,–,–,99
O=C1C2=C(Nc3ccccc3SC2c2ccccc2)c2ccccc21 (centres unmarked) [MMV645672],–,–,–,–,87,–,–,104,104,–,–,–
CC(NCc1ccccc1)c1cc(Cl)ccc1O (centres unmarked) [MMV665789],–,–,–,–,72,–,–,103,100,–,–,89
Cc1ccc(C(=O)c2oc3ccc4c(C)cc(=O)oc4c3c2C)cc1 [MMV086103],–,–,–,–,40,–,–,103,103,–,–,–
COc1ccc2c(c1)C1(Nc3ccccc3-c3nc4ccccc4n31)C(=O)N2 (centres unmarked) [MMV396749],–,–,–,–,88,> 50,45,102,102,15.9,98,94
Oc1c(CN2CCN(c3ccccc3F)CC2)cc(Br)c2cccnc12 [MMV000760],–,–,–,–,95,11.5,78,102,101,1.84,93,–
Oc1ccc(-c2nc(-c3ccc4oc5ccc(-c6[nH]c(-c7ccc(O)cc7)nc6-c6ccccc6)cc5c4c3)c(-c3ccccc3)[nH]2)cc1 [MMV000753],–,–,–,–,101,> 50,39,104,104,5.88,99,–
CC1CC(C)CN(C(=O)c2ccc(Cl)cc2Cl)C1 (centres unmarked) [MMV001344],–,–,–,–,74,–,–,98,98,–,–,88
O=C(NNc1cc(N2CCCC2)nc(N2CCCC2)n1)c1ccccc1 [MMV396770],–,–,–,–,29,–,–,97,98,–,–,–
Cc1cc(Nc2ccc(OCc3ccccc3)cc2)nc2cc(O)ccc12 [MMV007181],–,–,–,–,98,–,–,103,103,–,–,–
O=C(O)C1Cc2c([nH]c3ccccc23)C(c2ccc(Cl)cc2Cl)N1 (centres unmarked) [MMV008138],–,–,–,–,49,–,–,88,91,–,–,53
COc1ccc2c(c1)OC(O)(C(F)(F)C(F)(F)F)CC2=O (centres unmarked) [MMV007839],–,–,–,–,96,–,–,102,98,–,–,96
